In paper PMC5442763, “Selective Inhibition of ADAM17 Efficiently Mediates Glycoprotein Ibα Retention During Ex Vivo Generation of Human Induced Pluripotent Stem Cell‐Derived Platelets” (Stem Cells Translational Medicine, 2016):
Peptide text beside a SMILES is read from it. * marks the point of attachment. Cbz = O=C(OCc1ccccc1)*; CH2F = FC*

Columns and labels:
human washed platelets = experiment: CCCP-induced GPIbα shedding from washed platelets; type: cell-based; settings: relative to maximum inhibition elicited by KP-457 or GM-6001
Method: (§1) Flow cytometric analysis was performed as previously described. Briefly, iPSC‐ and ESC‐derived MKs on days 22–24 and platelets in their supernatants were stained with combinations of antibodies for 30 minutes on ice (for MKs) or at room temperature (for platelets). Samples of MKs/platelets were then washed, diluted with staining medium (phosphate‐buffered saline containing 3% fetal bovine serum), and analyzed using flow cytometry (FACSAria; BD). Trucount tubes (BD) were used to quantify the MKs and platelets.
Washed platelets were prepared as described elsewhere.

platelet aggregation = experiment: Platelet aggregation induced by thrombin or collagen; type: cell-based
[1] = tested on: human iPSC-derived MKs and platelets; experiment: Generation of MKs and platelets from human iPSC-derived HPCs at 37°C, flow cytometry; type: cell-based; settings: for number of CD41a+ total iPSC platelets / retention of GPIbα expression on CD41a+ iPSC-derived platelets / number of CD41a+ iPSC-derived MKs: KP-457 15 μmol/l, GM-6001 50 μmol/l, p38 MAP kinase inhibitor 10 μmol/l; for number of CD41a+ iPSC-derived MKs: MK differentiation and platelet production phases; for GPIbα retention by iPSC-derived platelets, inhibitor only during platelet production phase: days 21–23 or 24, KP-457 15, BIRB796 10, U0126 10, BMS345541 10, Z-VAD 10, Ro31-8220 3 μmol/l
Method: Directed differentiation to MKs and platelets from iPSCs and ESCs was performed as described previously. Briefly, 3 × 10^4 HPCs derived from iPS‐sacs on C3H10T1/2 feeder cells in the presence of 20 ng/ml vascular endothelial growth factor were transferred on day 14 of culture onto C3H10T1/2 feeder cells in differentiation medium supplemented with 50 ng/ml stem cell factor, 100 ng/ml thrombopoietin, 25 U/ml heparin sodium, and test compounds at 24°C or 37°C. The medium was refreshed every 3 days, and nonadherent cells were collected and analyzed on days 22–24.
as §1

Human ADAM17 [2] = target: T1, Human ADAM17 (Homo sapiens, UniProt P78536); experiment: MMP and ADAM activity assay (fluorescence-based, cell-free): ADAM17; type: biochemical; settings: cell-free fluorescence assay, TNF-α cleavage site substrate
T1 construct: purchased R&D Systems
From the text: (§2) Human ADAM17, ADAM10, and MMP17 were from R&D Systems (Minneapolis, MN, http://www.rndsystems.com), and human MMP1, MMP2, MMP3, MMP8, MMP9, MMP13, and MMP14 were from EMD Millipore. MMP1, MMP2, MMP8, MMP9, MMP13, and MMP17 were activated using p‐aminophenylmercuric acetate (Sigma‐Aldrich) before testing. Fluorogenic substrates for measuring activity of ADAM10 and ADAM17 [Nma‐[…](Dnp)r‐NH2, based on the cleavage site of TNF‐α]; MMP1, MMP9, MMP13, and MMP14 [Dnp‐P‐Cha‐GC(Me)HAK(N‐Me‐Abz)‐NH2]; MMP3 [MOCAc‐RPKPVE‐Nva‐WRK(Dnp)‐NH2]; and MMP2, MMP8, and MMP17 [MOCAc‐PLGL‐A2pr(Dnp)‐AR‐NH2] were all provided by Peptide Institute (Osaka, Japan, https://www.peptide.co.jp/en) and used as substrates. In addition, inhibitory activities were measured using LC/MS/MS with a GPIbα‐based substrate peptide ([…]), a C terminal‐based standard peptide ([…]), and an internal standard peptide ([…]). These peptides were synthetized by Scrum (Tokyo, Japan, http://www.scrum‐net.co.jp/english/top_en.htm).

human ADAM10 = target: T2, human ADAM10 (Homo sapiens, UniProt O14672); experiment: MMP and ADAM activity assay (fluorescence-based): ADAM10; type: biochemical; settings: cell-free fluorescence assay
T2 construct: purchased R&D Systems
Method: as §2, with “KP‐457 and GM‐6001 were tested for their ability to inhibit MMP‐ and ADAM‐catalyzed cleavage of substrates in a fluorescence‐based assay. Human” for “Human”

human MMP3 = target: T3, human MMP3 (Homo sapiens, UniProt P08254); experiment: MMP and ADAM activity assay (fluorescence-based): MMP3; type: biochemical; settings: cell-free fluorescence assay
T3 construct: purchased EMD Millipore
Method: as §2, with “KP‐457 and GM‐6001 were tested for their ability to inhibit MMP‐ and ADAM‐catalyzed cleavage of substrates in a fluorescence‐based assay. Human” for “Human”

human MMP13 = target: T4, human MMP13 (Homo sapiens, UniProt P45452); experiment: MMP and ADAM activity assay (fluorescence-based): MMP13; type: biochemical; settings: cell-free fluorescence assay
T4 construct: purchased EMD Millipore
From the text: as §2

human MMP14 = target: T5, human MMP14 (Homo sapiens, UniProt P50281); experiment: MMP and ADAM activity assay (fluorescence-based): MMP14; type: biochemical; settings: cell-free fluorescence assay
T5 construct: purchased EMD Millipore
Method: as §2, with “KP‐457 and GM‐6001 were tested for their ability to inhibit MMP‐ and ADAM‐catalyzed cleavage of substrates in a fluorescence‐based assay. Human” for “Human”

human MMP17 = target: T6, human MMP17 (Homo sapiens, UniProt Q9ULZ9); experiment: MMP and ADAM activity assay (fluorescence-based): MMP17; type: biochemical; settings: cell-free fluorescence assay
T6 construct: purchased R&D Systems
Method: as §2, with “KP‐457 and GM‐6001 were tested for their ability to inhibit MMP‐ and ADAM‐catalyzed cleavage of substrates in a fluorescence‐based assay. Human” for “Human”

Human ADAM17 [3] = target: T1, Human ADAM17; experiment: Cleavage of GPIbα-based substrate peptide by ADAM17 (LC/MS/MS); type: biochemical; settings: read-out: IC50, inhibition of C-terminal cleavage of the GPIbα sequence by ADAM17
From the text: as §2
(1 picture or pasted object on this page, not shown here)

[4] = tested on: mouse ESC-derived platelets; set-up: method as in PMID 18663123; settings: 100 µmol/l; cited from earlier work
ADAM17 = tested on: ADAM17; set-up: method as in PMID 25049354; settings: cited from earlier work
mouse platelets = tested on: mouse platelets; set-up: method as in PMID 23801636; settings: cited from earlier work

T1 sequence (P78536 215-824): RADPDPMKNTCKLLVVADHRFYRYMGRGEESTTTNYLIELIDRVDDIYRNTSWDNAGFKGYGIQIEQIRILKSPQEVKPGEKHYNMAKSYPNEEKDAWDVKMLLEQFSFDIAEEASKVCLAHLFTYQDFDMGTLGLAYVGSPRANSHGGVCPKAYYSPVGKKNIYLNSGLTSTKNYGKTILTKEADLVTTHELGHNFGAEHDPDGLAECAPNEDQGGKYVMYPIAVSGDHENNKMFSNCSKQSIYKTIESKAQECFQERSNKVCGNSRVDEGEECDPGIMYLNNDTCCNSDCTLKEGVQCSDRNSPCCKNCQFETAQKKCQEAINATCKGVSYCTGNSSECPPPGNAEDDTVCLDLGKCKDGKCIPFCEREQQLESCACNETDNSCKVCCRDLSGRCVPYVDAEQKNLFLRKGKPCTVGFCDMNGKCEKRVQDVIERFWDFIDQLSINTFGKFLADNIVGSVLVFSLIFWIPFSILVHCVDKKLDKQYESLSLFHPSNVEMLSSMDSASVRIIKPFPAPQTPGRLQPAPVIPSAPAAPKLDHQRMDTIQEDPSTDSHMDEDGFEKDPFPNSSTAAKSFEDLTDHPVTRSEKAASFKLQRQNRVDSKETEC
T3 sequence (P08254 100-477): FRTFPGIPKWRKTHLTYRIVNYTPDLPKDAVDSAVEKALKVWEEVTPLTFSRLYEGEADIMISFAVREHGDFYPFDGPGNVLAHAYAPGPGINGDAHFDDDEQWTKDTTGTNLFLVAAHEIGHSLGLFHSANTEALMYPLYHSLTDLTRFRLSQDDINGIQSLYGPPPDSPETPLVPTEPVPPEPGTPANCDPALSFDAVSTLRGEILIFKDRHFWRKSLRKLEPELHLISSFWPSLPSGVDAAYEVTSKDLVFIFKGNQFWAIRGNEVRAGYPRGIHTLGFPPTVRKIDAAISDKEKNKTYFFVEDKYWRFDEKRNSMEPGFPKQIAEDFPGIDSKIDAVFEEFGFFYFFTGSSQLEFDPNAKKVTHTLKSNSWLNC
T2 sequence (O14672 214-748): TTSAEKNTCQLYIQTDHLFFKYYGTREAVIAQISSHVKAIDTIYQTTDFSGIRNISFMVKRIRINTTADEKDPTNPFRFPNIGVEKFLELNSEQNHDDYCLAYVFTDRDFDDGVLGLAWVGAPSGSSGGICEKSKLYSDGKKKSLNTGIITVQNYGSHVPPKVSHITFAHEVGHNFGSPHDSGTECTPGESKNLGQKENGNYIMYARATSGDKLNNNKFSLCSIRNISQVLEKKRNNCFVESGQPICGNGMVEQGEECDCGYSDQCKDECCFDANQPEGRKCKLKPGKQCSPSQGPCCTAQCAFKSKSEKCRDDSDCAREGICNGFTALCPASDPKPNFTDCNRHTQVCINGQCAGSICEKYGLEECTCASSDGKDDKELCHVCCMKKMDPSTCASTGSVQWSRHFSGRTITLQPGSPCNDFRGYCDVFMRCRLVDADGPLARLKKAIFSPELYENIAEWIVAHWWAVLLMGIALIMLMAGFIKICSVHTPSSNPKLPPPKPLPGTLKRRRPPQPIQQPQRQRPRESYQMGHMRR
T6 sequence (Q9ULZ9 126-565 limits assumed): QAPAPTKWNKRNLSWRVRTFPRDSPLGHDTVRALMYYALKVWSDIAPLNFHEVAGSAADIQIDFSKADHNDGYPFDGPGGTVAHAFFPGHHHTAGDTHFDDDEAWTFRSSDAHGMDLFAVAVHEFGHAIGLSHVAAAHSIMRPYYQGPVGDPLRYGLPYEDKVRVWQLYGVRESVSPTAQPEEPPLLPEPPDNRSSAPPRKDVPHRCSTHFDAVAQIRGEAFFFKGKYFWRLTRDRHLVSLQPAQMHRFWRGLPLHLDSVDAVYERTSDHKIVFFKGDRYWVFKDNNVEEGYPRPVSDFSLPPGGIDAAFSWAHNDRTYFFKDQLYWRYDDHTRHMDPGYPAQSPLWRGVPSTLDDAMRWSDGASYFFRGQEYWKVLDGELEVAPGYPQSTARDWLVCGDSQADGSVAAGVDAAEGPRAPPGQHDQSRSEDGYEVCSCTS

SMILES: Cc1ccc(-n2nc(C(C)(C)C)cc2NC(=O)Nc2ccc(OCCN3CCOCC3)c3ccccc23)cc1 [BIRB796]
- plateau of the inhibitory effect on CCCP-induced GPIbα shedding (human washed platelets): around half the maximum inhibition
- effect on collagen-induced platelet aggregation (platelet aggregation): diminished
- GPIbα+ population in human iPSC-derived CD41a+ platelets ([1]; BIRB796 10 μmol/l, representative FACS plot, vehicle 48.3%): 48.0%
- number of CD41a+ total iPSC platelets [1]: increased
- retention of GPIbα expression on CD41a+ iPSC-derived platelets [1]: failed to preserve
- number of CD41a+ iPSC-derived MKs [1]: increased
- GPIbα retention by iPSC-derived platelets, inhibitor only during platelet production phase [1]: failed to prevent

SMILES: Cc1ccc2nc(NCCN)c3ncc(C)n3c2c1 [BMS345541]
- GPIbα retention by iPSC-derived platelets, inhibitor only during platelet production phase [1]: failed to prevent

SMILES: CNC(=O)[C@H](Cc1c[nH]c2ccccc12)NC(=O)[C@@H](CC(=O)NO)CC(C)C [GM-6001]
- IC50 (Human ADAM17 [2]): 163 nM
- IC50 (human ADAM10): 642 nM
- IC50 (human MMP3): 79.8 nM
- IC50 (human MMP13): 0.435 nM
- IC50 (human MMP14): 2.96 nM
- IC50 (human MMP17): 5.16 nM
- IC50 (Human ADAM17 [3]): 53.8 nM
- number of CD41a+ total iPSC platelets [1]: no significant effect
- retention of GPIbα expression on CD41a+ iPSC-derived platelets [1]: able to retain
- number of CD41a+ iPSC-derived MKs [1]: no significant effect
- GPVI shedding during platelet generation from mouse ESCs [4]: partially inhibited

SMILES: COc1ccc(S(=O)(=O)N2Cc3ccccc3C[C@@H]2C(=O)NO)cc1 [M8I]
- ADAM17 inhibition (ADAM17): potently inhibits ADAM17

SMILES: Cn1cc(C2=C(c3cn(CCCSC(=N)N)c4ccccc34)C(=O)NC2=O)c2ccccc21 [Ro31‐8220]
- GPIbα retention by iPSC-derived platelets, inhibitor only during platelet production phase [1]: failed to prevent

SMILES: C[S+]([O-])c1ccc(-c2nc(-c3ccncc3)c(-c3ccc(F)cc3)[nH]2)cc1 (centres unmarked) [SB203580]
- plateau of the inhibitory effect on CCCP-induced GPIbα shedding (human washed platelets): around half the maximum inhibition
- effect on collagen-induced platelet aggregation (platelet aggregation): diminished
- number of CD41a+ total iPSC platelets [1]: increased
- retention of GPIbα expression on CD41a+ iPSC-derived platelets [1]: failed to preserve
- number of CD41a+ iPSC-derived MKs [1]: increased
- suppression of thrombin-induced GPIbα shedding from mouse platelets compared with GM-6001 (mouse platelets): less effectively

SMILES: N#CC(=C(/N)Sc1ccccc1N)/C(C#N)=C(/N)Sc1ccccc1N [U0126]
- GPIbα retention by iPSC-derived platelets, inhibitor only during platelet production phase [1]: failed to prevent

SMILES: CC(NC(=O)C(NC(=O)OCc1ccccc1)C(C)C)C(=O)NC(CC(=O)O)C(=O)CF (stereo not drawn) [Z‐VAD] (Cbz-Val-Ala-Asp-CH2F; configuration not given here)
- GPIbα retention by iPSC-derived platelets, inhibitor only during platelet production phase [1]: failed to prevent
